# Source: PMC7932537, “Quantitative profiling of protease specificity” (PLoS Computational Biology, 2021)
# Experiments:
# MMP-9 = MMP-9 (Homo sapiens, UniProt P14780); test: K(obs) of individual phage substrates (set of 1369); assay type: biochemical; details: MMP9
# MMP-2 [1] = molecular target: T1, MMP-2 (Homo sapiens, UniProt P08253); test: as above; assay type: biochemical; details: MMP2
# T1 sequence (P08253 110-660): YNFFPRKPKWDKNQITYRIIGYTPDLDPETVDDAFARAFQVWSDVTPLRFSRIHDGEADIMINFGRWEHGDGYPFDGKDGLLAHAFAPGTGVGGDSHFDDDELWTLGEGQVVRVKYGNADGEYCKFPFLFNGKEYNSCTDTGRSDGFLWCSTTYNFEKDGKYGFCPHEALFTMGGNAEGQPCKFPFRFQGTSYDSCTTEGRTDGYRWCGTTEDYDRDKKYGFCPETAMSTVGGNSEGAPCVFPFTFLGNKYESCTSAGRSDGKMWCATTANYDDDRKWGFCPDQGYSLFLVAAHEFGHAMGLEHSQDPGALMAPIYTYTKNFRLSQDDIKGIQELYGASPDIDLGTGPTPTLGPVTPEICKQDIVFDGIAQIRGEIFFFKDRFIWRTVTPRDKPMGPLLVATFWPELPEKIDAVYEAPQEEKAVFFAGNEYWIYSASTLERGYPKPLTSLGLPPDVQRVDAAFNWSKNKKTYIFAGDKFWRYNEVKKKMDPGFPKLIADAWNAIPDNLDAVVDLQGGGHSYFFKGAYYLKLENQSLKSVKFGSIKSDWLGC
# MMP-2 [2] = test: Substrate phage display with NGS: relative probability (RP) of P3-P1' tetramer clusters; assay type: biochemical, human; details: MMP2;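 further: ratio of tetramer probability after protease selection to that in naive phage library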
# [3] = individual phage substrate of the set of 1369 peptides, dash in the sequence marks the cleavage position
# [4] = individual phage substrate of the set of 1369 peptides, cleavage position marked by '-'
# [5] = RP of the P3-P1' tetramer contained in the substrate
# [6] = individual phage substrates, set of 1369 peptides, hyphen in sequence marks cleavage position
# [7] = individual phage substrates, set of 1369 peptides, cleavage position marked by hyphen in sequence
# [8] = RP of the P3-P1' tetramer contained in the substrate (substrate phage display with NGS)
# [9] = individual phage substrates, set of 1369 peptides, dash in sequence marks cleavage position
# [10] = individual phage substrate from the set of 1369 peptides, cleavage position marked by the dash in the sequence
# [11] = individual phage substrates, set of 1369 peptides, '-' marks the cleavage position (P1-P1')
# [12] = individual phage substrates, set of 1369 peptides, cleavage position marked by '-' in the sequence
# Chain of MMP-9 (P14780 94-707): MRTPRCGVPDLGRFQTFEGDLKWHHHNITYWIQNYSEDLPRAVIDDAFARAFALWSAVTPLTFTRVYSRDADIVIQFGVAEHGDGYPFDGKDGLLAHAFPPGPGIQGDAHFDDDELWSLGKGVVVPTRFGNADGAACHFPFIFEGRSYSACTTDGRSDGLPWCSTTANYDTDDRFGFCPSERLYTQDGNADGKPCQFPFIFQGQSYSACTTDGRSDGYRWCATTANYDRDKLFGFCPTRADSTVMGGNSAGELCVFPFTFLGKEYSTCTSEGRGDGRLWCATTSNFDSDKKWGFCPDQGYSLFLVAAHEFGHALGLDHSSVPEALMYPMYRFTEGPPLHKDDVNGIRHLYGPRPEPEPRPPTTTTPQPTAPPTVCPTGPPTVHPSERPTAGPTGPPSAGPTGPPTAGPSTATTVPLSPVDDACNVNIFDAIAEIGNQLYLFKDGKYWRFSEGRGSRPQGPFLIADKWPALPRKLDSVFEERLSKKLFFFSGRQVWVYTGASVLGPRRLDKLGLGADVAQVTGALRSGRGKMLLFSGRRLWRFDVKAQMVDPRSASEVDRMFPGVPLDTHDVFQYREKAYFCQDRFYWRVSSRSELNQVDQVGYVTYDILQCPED
Substance,Kobs (MMP-9; [9]) [M⁻¹ s⁻¹],Kobs (MMP-2 [1]; [10]) [M⁻¹ s⁻¹],Kobs (MMP-9; [11]) [M⁻¹ s⁻¹],Kobs (MMP-2 [1]; [12]) [M⁻¹ s⁻¹],other results
AAWAS-ITASG,–,–,–,–,Kobs (MMP-9; [3]): 0 M⁻¹ s⁻¹; Kobs (MMP-2 [1]; [4]): 6396.07 M⁻¹ s⁻¹; relative probability (RP) (MMP-2 [2]; [5]): 12.5247
ACIWS-LTASG,–,–,–,–,Kobs (MMP-9; [3]): 355.093 M⁻¹ s⁻¹; Kobs (MMP-2 [1]; [4]): 27.918 M⁻¹ s⁻¹; relative probability (RP) (MMP-2 [2]; [5]): 5.404
AFLSH-WTASG,–,–,–,–,Kobs (MMP-9; [6]): 0 M⁻¹ s⁻¹; Kobs (MMP-2 [1]; [7]): 12792.1 M⁻¹ s⁻¹; relative probability (RP) (MMP-2 [2]; [8]): 23.1226
AGPQP-LTASG,–,–,–,–,Kobs (MMP-9; [6]): 12792.1 M⁻¹ s⁻¹; Kobs (MMP-2 [1]; [7]): 12792.1 M⁻¹ s⁻¹; relative probability (RP) (MMP-2 [2]; [8]): 30.3595
SRVLP-LTASG,1711.63,4613.14,–,–,–
SRVRN-LTASG,–,–,4470.66,8321.48,–
SSPLY-LTASG,–,–,12792.1,12792.1,–
SSYAH-LTASG,–,–,0,5269.78,–
STVRN-LTASG,–,–,4470.66,12792.1,–
SVARN-LTASG,–,–,4205.91,10866.7,–
SWGLA-LTASG,–,–,690.17,619.843,–
SYMFS-LTASG,–,–,113.394,56.119,–
TALGY-LTASG,–,–,323.705,12792.1,–
TAPIN-LTASG,–,–,12792.1,12792.1,–
TAVRS-LTASG,5889.62,12792.1,–,–,–
TGSWP-LTASG,113.394,0,–,–,–
TKVLW-LTASG,–,–,10866.7,4763.33,–
TLPHS-LTASG,9740.44,12792.1,–,–,–
TLTHH-LTASG,–,–,0,0,–
TMAHP-LTASG,–,–,4470.66,6688.74,–
TMPYL-LTASG,7815.03,1870.4,–,–,–
TPVGW-MTASG,–,–,5269.78,12792.1,–
TRMAL-LTASG,84.609,3438.54,–,–,–
TRPQH-LTASG,–,–,7815.03,10866.7,–
TSVLA-LTASG,–,–,4335.13,8321.48,–

Substance,Kobs (MMP-9; [9]) [M⁻¹ s⁻¹],Kobs (MMP-2 [1]; [10]) [M⁻¹ s⁻¹],Kobs (MMP-9; [11]) [M⁻¹ s⁻¹],Kobs (MMP-2 [1]; [12]) [M⁻¹ s⁻¹],other results
TTALW-LTASG,4922.1,6131.32,–,–,–
TTSAS-LTASG,171.876,3165.09,–,–,–
TTSLR-LTASG,84.609,0,–,–,–
TVLRS-LTASG,–,–,3536.02,12792.1,–
TVSLP-LTASG,355.093,2097.28,–,–,–
TWAKM-LTASG,292.668,0,–,–,–
VAISR-LTASG,113.394,12792.1,–,–,–
VDHAH-LTASG,–,–,0,5269.78,–
VDILH-LTASG,–,–,551.253,3438.54,–
VEAHA-LTASG,2837.92,7015.91,–,–,–
VFALN-LTASG,–,–,12792.1,12792.1,–
VFYQS-LTASG,–,–,0,12792.1,–
VHAVW-LTASG,–,–,12792.1,12792.1,–
VHVHA-LTASG,–,–,2476.66,5461.43,–
VIVAA-LTASG,–,–,10866.7,12792.1,–
VKAQH-LTASG,2476.66,7815.03,–,–,–
VKVWG-LTASG,8321.48,5461.43,–,–,–
VMHQN-LTASG,171.876,8941.32,–,–,–
VNVRN-LTASG,5269.78,12792.1,–,–,–
VPPMP-LTASG,–,–,12792.1,12792.1,–
VQLRS-LTASG,–,–,7015.91,12792.1,–
VRTMA-LTASG,–,–,1030.73,142.481,–
VSISF-LTASG,–,–,654.784,12792.1,–
VSVDQ-LTASG,0,0,–,–,–
VTPLY-LTASG,–,–,12792.1,12792.1,–

Substance,Kobs (MMP-9; [9]) [M⁻¹ s⁻¹],Kobs (MMP-2 [1]; [10]) [M⁻¹ s⁻¹],Kobs (MMP-9; [11]) [M⁻¹ s⁻¹],Kobs (MMP-2 [1]; [12]) [M⁻¹ s⁻¹],other results
VTVIA-LTASG,–,–,951.362,1711.63,–
VVAVS-LTASG,–,–,9740.44,12792.1,–
VWGRA-LTASG,–,–,8321.48,7386.83,–
VYSAY-LTASG,142.481,8941.32,–,–,–
WHFGA-LTASG,–,–,0,12792.1,–
WLAQA-LTASG,–,–,7815.03,12792.1,–
WLYAH-YTASG,113.394,1816.46,–,–,–
WNSLN-LTASG,451.441,484.315,–,–,–
WSVQL-LTASG,–,–,355.093,551.253,–
WVANM-ITASG,–,–,1513.13,7386.83,–
YAPGS-MTASG,–,–,3741.87,5269.78,–
YATWS-MTASG,–,–,27.918,0,–
YFARQ-LTASG,–,–,3438.54,2038.8,–
YFPLD-MTASG,7815.03,3637.04,–,–,–
YKAFT-MTASG,386.839,113.394,–,–,–
YLPRA-ITASG,–,–,12792.1,12792.1,–
YNVNY-LTASG,201.585,3964.21,–,–,–
YQTMA-LTASG,–,–,585.336,551.253,–
YRVAF-LTASG,–,–,5090.5,7015.91,–
YSALP-MTASG,3964.21,1561.44,–,–,–
YSPSL-ITASG,2476.66,4470.66,–,–,–
YTMLH-LTASG,0,726.013,–,–,–
YYASH-LTASG,1373.05,7015.91,–,–,–
